In patent EP3771713A1 (priority 2019, dated 2021):
Entries after “also recorded” stand apart in the source; their conditions may differ. Where two headings read alike, the source gives them in different places.

Assays:
[1] = target: hBChE (Homo sapiens, UniProt P06276); assay: biochemical; type: biochemical; settings: for IC50: means of at least three determinations, read-out: IC50 hBChE
[2] = target: eeAChE (Electrophorus electricus, UniProt O42275); assay: biochemical; settings: eeAChE from electric eel; read-out: IC50 AChE (eeAChE)
[3] = target: hAChE (Homo sapiens, UniProt P22303); assay: biochemical; type: biochemical; settings: hAChE recombinant expressed; for IC50: read-out: IC50 AChE (hAChE)
[4] = target: T1, hCB1R (Homo sapiens, UniProt P21554); type: binding
T1 construct: expressed in transfected cells; host or cells: CHO cells stably expressing hCB1R

[5] = target: Aβ42 (Homo sapiens, UniProt P05067); assay: Aβ42 self-aggregation, thioflavin-T fluorescence assay; type: biochemical; settings: for inhibition at 50 µM: 50 µM inhibitor and 50 µM Aβ42, mean ± SEM, read-out: % inhibition Aβ aggregation self-induced; for inhibition of Aβ42 self-aggregation (in words): 1/1 ratio with Aβ42
[6] = target: hAChE-induced Aβ40 aggregation (Homo sapiens, UniProt P22303); assay: biochemical; type: biochemical; settings: for inhibition at 100 µM: [I] = 100 µM, Aβ40/hAChE ratio 100/1, mean ± SEM, read-out: % inhibition Aβ aggregation AChE-induced
[7] = target: T2, hCB2R (Homo sapiens, UniProt P34972); type: cell-based
T2 construct: expressed in transfected cells; host or cells: HEK cells stably expressing hCB2R

[8] = tested on: murine microglial cell line N9; assay: Microglia activation: LPS-activated N9 cells, M1/M2 markers (Griess reaction, western blot); type: cell-based
[9] = tested on: HT-22 cells; type: cell-based, murine
[10] = tested on: Aβ25-35-induced learning impairments in mice; settings: mouse, ip; for dose that significantly prevented Aβ25-35-induced learning impairments / most effective dose (completely prevented Aβ25-35 impairments in both tests): in vivo
[11] = target: T2, hCB2R; assay: biochemical; type: binding
[12] = N9 cells, 100 ng/mL LPS, 1-5 µM compound, 24 h, M1 marker
[13] = N9 cells, 100 ng/mL LPS, 1-5 µM compound, 24 h, M2 marker

Chain of Aβ42 (P05067 672-713): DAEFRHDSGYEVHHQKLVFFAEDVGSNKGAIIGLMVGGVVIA
Chain of hBChE (P06276 29-602): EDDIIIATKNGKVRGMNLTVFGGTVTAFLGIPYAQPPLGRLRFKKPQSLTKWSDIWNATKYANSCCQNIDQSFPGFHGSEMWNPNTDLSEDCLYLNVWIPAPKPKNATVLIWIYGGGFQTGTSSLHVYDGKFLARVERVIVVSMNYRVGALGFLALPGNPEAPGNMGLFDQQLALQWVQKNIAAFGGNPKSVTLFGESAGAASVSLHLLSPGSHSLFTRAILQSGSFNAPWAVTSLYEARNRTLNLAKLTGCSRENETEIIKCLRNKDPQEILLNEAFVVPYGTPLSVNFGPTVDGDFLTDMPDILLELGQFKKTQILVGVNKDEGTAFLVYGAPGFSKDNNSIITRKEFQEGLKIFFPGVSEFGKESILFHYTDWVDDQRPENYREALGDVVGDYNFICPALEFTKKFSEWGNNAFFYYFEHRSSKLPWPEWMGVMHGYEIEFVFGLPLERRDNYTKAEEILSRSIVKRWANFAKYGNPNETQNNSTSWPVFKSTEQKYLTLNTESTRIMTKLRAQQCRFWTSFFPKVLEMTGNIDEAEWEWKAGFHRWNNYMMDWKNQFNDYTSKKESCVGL
T2 sequence (P34972 whole entry): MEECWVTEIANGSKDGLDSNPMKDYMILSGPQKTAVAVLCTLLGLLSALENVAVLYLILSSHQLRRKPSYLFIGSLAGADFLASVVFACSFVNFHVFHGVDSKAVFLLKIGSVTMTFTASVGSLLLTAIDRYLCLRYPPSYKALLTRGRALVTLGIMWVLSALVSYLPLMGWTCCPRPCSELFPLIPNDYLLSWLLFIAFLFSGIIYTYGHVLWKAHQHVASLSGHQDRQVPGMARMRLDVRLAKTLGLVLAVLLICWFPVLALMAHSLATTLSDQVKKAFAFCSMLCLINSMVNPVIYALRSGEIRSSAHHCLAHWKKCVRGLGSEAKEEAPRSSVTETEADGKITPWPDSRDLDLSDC
Chain of hAChE (P22303 32-614): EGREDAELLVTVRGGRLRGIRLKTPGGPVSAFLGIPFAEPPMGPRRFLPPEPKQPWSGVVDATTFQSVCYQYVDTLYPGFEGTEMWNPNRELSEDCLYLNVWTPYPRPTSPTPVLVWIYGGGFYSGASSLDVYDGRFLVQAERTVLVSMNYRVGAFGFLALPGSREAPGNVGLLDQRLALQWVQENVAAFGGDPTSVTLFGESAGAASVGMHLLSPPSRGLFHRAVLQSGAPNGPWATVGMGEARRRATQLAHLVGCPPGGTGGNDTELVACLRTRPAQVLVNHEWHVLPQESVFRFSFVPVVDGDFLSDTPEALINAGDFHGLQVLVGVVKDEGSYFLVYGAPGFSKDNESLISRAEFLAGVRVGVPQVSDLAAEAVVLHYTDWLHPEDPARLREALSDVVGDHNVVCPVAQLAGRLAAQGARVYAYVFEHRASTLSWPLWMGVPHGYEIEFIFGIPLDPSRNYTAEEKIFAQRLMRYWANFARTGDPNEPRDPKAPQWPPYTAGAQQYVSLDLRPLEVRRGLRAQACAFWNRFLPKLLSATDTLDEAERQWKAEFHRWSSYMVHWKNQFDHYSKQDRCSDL
Chain of hAChE-induced Aβ40 aggregation (P22303 32-614): as above
T1 sequence (P21554 whole entry): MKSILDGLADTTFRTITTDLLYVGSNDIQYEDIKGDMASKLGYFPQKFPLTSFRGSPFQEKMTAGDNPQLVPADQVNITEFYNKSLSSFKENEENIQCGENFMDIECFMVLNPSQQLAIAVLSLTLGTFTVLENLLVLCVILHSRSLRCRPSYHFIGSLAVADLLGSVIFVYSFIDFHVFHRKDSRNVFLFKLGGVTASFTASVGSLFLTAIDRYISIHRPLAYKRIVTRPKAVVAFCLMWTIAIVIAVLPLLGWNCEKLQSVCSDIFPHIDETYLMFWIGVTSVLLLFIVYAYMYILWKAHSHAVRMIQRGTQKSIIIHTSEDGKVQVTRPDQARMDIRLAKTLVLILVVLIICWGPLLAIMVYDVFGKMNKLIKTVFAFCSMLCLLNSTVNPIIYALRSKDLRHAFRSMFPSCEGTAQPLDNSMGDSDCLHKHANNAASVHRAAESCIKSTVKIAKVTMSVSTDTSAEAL
Chain of eeAChE (O42275 24-633): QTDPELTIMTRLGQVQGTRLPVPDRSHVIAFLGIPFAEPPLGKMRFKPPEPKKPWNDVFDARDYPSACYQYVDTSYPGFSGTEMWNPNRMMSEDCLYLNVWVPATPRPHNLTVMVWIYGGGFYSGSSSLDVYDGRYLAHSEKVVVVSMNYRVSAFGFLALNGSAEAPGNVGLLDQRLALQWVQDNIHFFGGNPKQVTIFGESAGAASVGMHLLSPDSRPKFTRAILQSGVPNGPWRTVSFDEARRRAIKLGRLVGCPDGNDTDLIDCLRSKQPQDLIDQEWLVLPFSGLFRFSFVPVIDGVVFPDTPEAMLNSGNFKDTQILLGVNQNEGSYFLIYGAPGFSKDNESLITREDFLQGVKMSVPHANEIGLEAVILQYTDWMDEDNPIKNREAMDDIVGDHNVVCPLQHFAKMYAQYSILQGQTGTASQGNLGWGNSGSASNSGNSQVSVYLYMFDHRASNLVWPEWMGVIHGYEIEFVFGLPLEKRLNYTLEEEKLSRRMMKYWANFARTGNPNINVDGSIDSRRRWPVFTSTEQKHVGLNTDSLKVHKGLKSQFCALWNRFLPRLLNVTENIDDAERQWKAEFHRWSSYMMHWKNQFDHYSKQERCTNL

Row | SMILES | IC50 ([1]; hBChE from human serum) [nM] | IC50 [2] [nM] | pIC50 ± SD AChE (hAChE) [3] | IC50 [3] [nM] | [^3H]CP 55,940 displ. @10 µM hCB1R [4] [%] | inhibition at 50 µM [5] [%] | inhibition of Aβ42 self-aggregation (in words) [5] | inhibition of AChE-induced Aβ40 aggregation (in words) [6] | inhibition at 100 µM [6] [%] | neuroprotective behavior (in words) [9] | dose that significantly prevented Aβ25-35-induced learning impairments [10] [mg/kg] | most effective dose (completely prevented Aβ25-35 impairments in both tests) [10] [mg/kg] | dose given for the high in vivo efficacy (conclusion) [10] [mg/kg] | further results
1 | CCOc1ccc(Cc2nc3cc(C(=O)N(CC)CC)ccc3n2CCCCCCNc2c3c(nc4ccccc24)CCCC3)cc1 [compound 3e, 2-(4-Ethoxybenzyl)-N,N-diethyl-1-(6-((1,2,3,4-tetrahydroacridin-9-yl)amino)hexyl)-1H-benzo[d]imidazole-5-carboxamide] | 1.9 | 0.5 | 7.1 ± 0.1 | 86.1 | 17 | 81.5 ± 2 | pronounced inhibition; also recorded: strongly inhibited | pronounced inhibition; also recorded: significantly reduce | 62.9 ± 5.4 | low neuroprotective behavior; also recorded: showed neuroprotection | 0.3 | 0.3 | 0.1 | inhibitory potency towards hBChE compared to tacrine ([1]; compared to tacrine): increased inhibitory potency; MIF gene expression [7]: reduced; STAT-3 gene expression [7]: reduced; behavior at the hCB2R [7]: maintained their agonist behavior; immunomodulatory effect ([8]; LPS-activated microglial cells): immunomodulatory effect; NO release / nitrite accumulation ([8]; N9 cells, 100 ng/mL LPS, 1-5 µM compound, 24 h): reduced; also recorded: strongly reduces; IL1β release [8, 12]: significantly decrease; also recorded: strongly reduces; iNOS expression [8, 12]: significantly decrease; also recorded: strongly reduces; TGFβ2 expression [8, 13]: not reduced; also recorded: no parallel change; TREM2 expression [8, 13]: not reduced; also recorded: no parallel change
2 | CCOc1ccc(Cc2nc3cc(C(=O)NCCSSCCNc4c5c(nc6ccccc46)CCCC5)ccc3n2CCC(C)C)cc1 [compound 8, 2-(4-Ethoxybenzyl)-1-isopentyl-N-(2-((2-((1,2,3,4-tetrahydroacridin-9-yl)amino)ethyl)disulfaneyl)ethyl)-1H-benzo[d]imidazole-5-carboxamide] | 77 | 44 | 7.9 ± 0.1 | 13.4 | 45 | 83.4 ± 6.4 | strongly inhibited | not able to significantly inhibit | 5 ± 2.6 | neuroprotection comparable to the positive control quercetin; also recorded: showed neuroprotection | 0.3 | 0.3 | 0.1 | pIC50 ± SD hBChE ([1]; hBChE from human serum): 7.1 ± 0.1; Ki [11]: 6310 nM; affinity towards hCB2R (in words) [11]: no significant effect on affinity; Ki ([11]; read-out: Ki hCB2R): 6800 nM
